Here are results for two compounds from article PMC3468400, “Pharmacokinetic profiles of artesunate following multiple intravenous doses of 2, 4, and 8 mg/kg in healthy volunteers: Phase 1b study” (Malaria Journal, 2012).

Molecules are shown by their SMILES. Like-named read-outs stand apart in the source and are kept apart here.

The subject of series [1] is severe falciparum malaria. The settings on record: SEAQUAMAT, severe malaria patients, intravenous treatment; cited from earlier work.
Series [2] deals with asexual blood stage parasites. The following applies: cited from earlier work.
The nature of series [3]: Pharmacokinetics of dihydroartemisinin (DHA), active metabolite, in plasma after multiple intravenous AS doses, non-compartmental analysis. The settings on record: for Total AUCD1-D3: DHA, days 1-3; for AUC: Mean AUC of DHA, range over doses, AS 2-8 mg/kg iv. The series is classed as in vivo, human. As to the method: The study was a double blind, ascending multiple doses, alternating group, safety, tolerance, and PK study. […] When the injection was completed, the study nurse recorded tolerance of injection to include both inspection of site and subjects’ responses. Subjects were provided a light lunch at approximately 4 hours after dosing. Normal activities, excluding strenuous exercise, were permitted four hours after dosing. […] During the multiple-dose period, samples were collected immediately before morning dose on days 2 and 3 for additional trough values. All the samples were stored at −80 °C until shipment and were then shipped to a bio-analytical GLP laboratory, Midwest Research Institute (MRI), in Kansas City, MO, USA. The human use protocol numbers for the Phase 1 trial are: USUHS #G183RW; WRIAR #1128; and HSRRB #A-13276.
The analytes were extracted from human plasma with ethyl acetate. […] The reconstituted extracts were analysed on a Micromass Quattro II Mass Spectrometer in the positive ion electrospray ionization (+ESI) mode. […] This method employed a Varian Pursuit C18 column (150 x 2.0 mm, 5-μm particle size) and a gradient elution with the following mobile phases: A: 10 mM ammonium acetate in water with 1% formic acid and B: 10 mM ammonium acetate in acetonitrile with 1% formic acid, for the chromatographic separation.
Calibration standards and QC samples were analysed to evaluate the performance of the assay.
The maximum concentration in plasma for each subject was read directly from the experimental values. […] The values of the following PK parameters were derived by a non-compartmental method: the half-life (t½); mean residence time (MRT); the AUC from time zero to the last sampling time (AUCt); the AUC from time zero extrapolated to infinity (AUCinf); relative total systemic clearance (CL/F_obs); and volume of distribution during steady state (Vss/F_obs). A drug accumulation index was estimated from the AUC value on day 3 divided by the AUC value on day 1 (first multiple dose administration).

The mark [4] stands for this setting: human, plasma, intravenous, all days and dose cohorts.

Take `C=C[C@H]1C[N@@]2CC[C@H]1C[C@H]2[C@H](O)c1ccnc2ccc(OC)cc12` [quinine]: in series [1], the mortality rate was 22%.
Broadly, the CL/F is clearance divided by bioavailability, as obtained after extravascular dosing. The Tmax is the time from dosing to the highest level. What is called Cmax is the highest concentration seen after dosing. A word on the MRT: it is a mean duration of stay, worked out from the concentration-time curve. In general, AUC refers to the area under the concentration-time curve, a measure of exposure. As to `C[C@H]1[C@@H](O)O[C@@H]2O[C@@]3(C)CC[C@H]4[C@H](C)CC[C@@H]1[C@@]24OO3` [DHA, dihydroartemisinin], the “time to complete inhibition of parasite growth” value in series [2] was “within two to four hours”. Besides, the figures for the “Mean peak concentrations of DHA over the three days, range” value in series [3] (4 mg/kg cohort) and in series [3] (8 mg/kg cohort) were 2923 to 3018 ng/mL and 5762 to 6056 ng/mL, respectively. Further, the “Total AUCD1-D3” value is reported as 6520 (18) in series [3] (AS 2 mg/kg iv daily for 3 days, mean (CV%), n = 6); 12092 (20) in series [3] (AS 4 mg/kg iv daily for 3 days, mean (CV%), n = 6); 27635 (34) in series [3] (AS 8 mg/kg iv daily for 3 days, mean (CV%), n = 6). Besides, in series [3] (after each short-term infusion of AS, all volunteers), the “time DHA detected in plasma” value is reported as “until six hours”. Moreover, the AUC(0-inf) is 2020 to 2380 ng·h/mL in series [3] (human, plasma, intravenous, 2 mg/kg, Mean AUCinf of DHA over three days, range, 2 mg/kg cohort); 3740 to 4390 ng·h/mL in series [3] (human, plasma, intravenous, 4 mg/kg, Mean AUCinf of DHA over three days, range, 4 mg/kg cohort); 8730 to 9700 ng·h/mL in series [3] (human, plasma, intravenous, 8 mg/kg, Mean AUCinf of DHA over three days, range, 8 mg/kg cohort); 2120 ng·h/mL in series [3] (human, plasma, iv, 2 mg/kg, Day 1, DHA after AS 2 mg/kg iv daily for 3 days, 2 min infusion, mean (CV%), n = 6, NCA, read-out: AUCinf); 4390 ng·h/mL in series [3] (human, plasma, iv, 4 mg/kg, Day 1, DHA after AS 4 mg/kg iv daily for 3 days, 2 min infusion, mean (CV%), n = 6, NCA, read-out: AUCinf); 3960 ng·h/mL in series [3] (human, plasma, iv, 4 mg/kg, Day 3, DHA after AS 4 mg/kg iv daily for 3 days, 2 min infusion, mean (CV%), n = 6, NCA, read-out: AUCinf). The AUC(0-inf) in series [3] (human, plasma, iv, 8 mg/kg, Day 1, DHA after AS 8 mg/kg iv daily for 3 days, 2 min infusion, mean (CV%), n = 6, NCA, read-out: AUCinf) was determined as 9700 ng·h/mL; in series [3] (human, plasma, iv, 8 mg/kg, Day 3, DHA after AS 8 mg/kg iv daily for 3 days, 2 min infusion, mean (CV%), n = 6, NCA, read-out: AUCinf), 9200 ng·h/mL. Moreover, the CL/F in series [3] (setting [4]) fell in the range of 14.6 to 19.4 mL/min/kg. Further, the Tmax was 0.16 to 0.29 h in series [3] (setting [4]); 0.29 h in series [3] (human, plasma, iv, 2 mg/kg, read-out: Tmax); 0.25 h in series [3] (human, plasma, iv, 4 mg/kg, read-out: Tmax); 0.25 h in series [3] (human, plasma, iv, 8 mg/kg, read-out: Tmax). Also, the Cmax in series [3] (human, plasma, iv, 2 mg/kg) amounted to 1740 ng/mL; in series [3] (human, plasma, iv, 4 mg/kg) it was 3020 ng/mL; in series [3] (human, plasma, iv, 8 mg/kg), 6060 ng/mL. Further, the MRT amounted to 1.41 h in series [3] (human, plasma, iv, 2 mg/kg, Day 1, DHA after AS 2 mg/kg iv daily for 3 days, 2 min infusion, mean (CV%), n = 6, NCA); 1.39 h in series [3] (human, plasma, iv, 2 mg/kg, Day 3, DHA after AS 2 mg/kg iv daily for 3 days, 2 min infusion, mean (CV%), n = 6, NCA); 1.91 h in series [3] (human, plasma, iv, 4 mg/kg, Day 1, DHA after AS 4 mg/kg iv daily for 3 days, 2 min infusion, mean (CV%), n = 6, NCA); 1.57 h in series [3] (human, plasma, iv, 4 mg/kg, Day 3, DHA after AS 4 mg/kg iv daily for 3 days, 2 min infusion, mean (CV%), n = 6, NCA); 1.81 h in series [3] (human, plasma, iv, 8 mg/kg, Day 1, DHA after AS 8 mg/kg iv daily for 3 days, 2 min infusion, mean (CV%), n = 6, NCA); 1.78 h in series [3] (human, plasma, iv, 8 mg/kg, Day 3, DHA after AS 8 mg/kg iv daily for 3 days, 2 min infusion, mean (CV%), n = 6, NCA). Moreover, the half-life is 1.19 h in series [3] (human, plasma, iv, 2 mg/kg, Day 1, DHA after AS 2 mg/kg iv daily for 3 days, 2 min infusion, mean (CV%), n = 6, NCA, read-out: t1/2 elimination (converted)); 1.74 h in series [3] (human, plasma, iv, 4 mg/kg, Day 1, DHA after AS 4 mg/kg iv daily for 3 days, 2 min infusion, mean (CV%), n = 6, NCA, read-out: t1/2 elimination (converted)); 1.24 h in series [3] (human, plasma, iv, 4 mg/kg, Day 3, DHA after AS 4 mg/kg iv daily for 3 days, 2 min infusion, mean (CV%), n = 6, NCA, read-out: t1/2 elimination (converted)); 1.42 h in series [3] (human, plasma, iv, 8 mg/kg, Day 1, DHA after AS 8 mg/kg iv daily for 3 days, 2 min infusion, mean (CV%), n = 6, NCA, read-out: t1/2 elimination (converted)); 1.34 h in series [3] (human, plasma, iv, 8 mg/kg, Day 3, DHA after AS 8 mg/kg iv daily for 3 days, 2 min infusion, mean (CV%), n = 6, NCA, read-out: t1/2 elimination (converted)); 1.23 to 1.63 h in series [3] (human, plasma, iv, 8 mg/kg, mean elimination half-life of DHA, range, range of means over three days and AS 2, 4, 8 mg/kg iv doses). The AUC in series [3] (human, plasma, iv, day 1) was in the range of 2120 to 9700 ng·h/mL; in series [3] (human, plasma, iv, day 3), 2380 to 9200 ng·h/mL. Moreover, the “mean elimination half-life of DHA, range” value in series [3] (range of means over three days and AS 2, 4, 8 mg/kg iv doses) lay within 1.19 to 1.91 h.
